In PMC4109680, “Identification and Preclinical Pharmacology of the γ-Secretase Modulator BMS-869780” (International Journal of Alzheimer's Disease, 2014):

Tests used:
mNotch1ΔE = assay: Notch signaling CBF1-luciferase reporter assay in HeLa cells transfected with mNotch1ΔE; assay type: cell-based; conditions: for IC50: HeLa, treated overnight; for mNotch1ΔE/Aβ1-42: ratio of IC50 values
Procedure: (§1) Inhibition of Notch signaling in cultured cells using a mouse-derived truncated Notch1 transgene, mNotch-ΔE [67], has been described in detail previously. Western blots for mNotchΔ1865 and NICD using 9E10 anti-c-myc monoclonal were carried out as previously described.
(§2) The effect of BMS-869780 on Notch processing was evaluated using transcriptional reporter assays and western blotting of NICD levels. HeLa cell cultures were transfected with mNotch1ΔE and CBF1-luciferase reporter constructs and treated with BMS-869780. In most replicates of this experiment, inhibition of luciferase reporter occurred with IC50 > 10 μM. […] To further evaluate the effect of BMS-869780 on Notch processing, western blots of cell cultures were carried out using mNotch1Δ1865, a truncated version of mNotch1ΔE that facilitates separation of NICD product from mNotch1 substrate on western blots. HeLa cell cultures were transfected with mNotch1Δ1865 and treated overnight with compounds before western blotting. […] Furthermore, the GSIs caused an increased level of mNotch1Δ1865 substrate, most likely due to inhibition of its turnover by γ-secretase, as previously noted by Blat et al..
(§3) (b) HeLa cell cultures were transfected with mNotchΔ1865, treated with compounds overnight, and cell extracts were evaluated by western blot using anti-c-myc-HRP conjugate. Lanes 1 and 9: DMSO (0.1%) vehicle. Lane 2: BMS-299897 at 1 μM. Lane 3: BMS-433796 at 0.3 μM. Lanes 4–8: BMS-869780 at 0.1, 0.3, 1, 3, and 10 μM, respectively.

mNotch1Δ1865 = assay: Western blot of NICD and mNotch1Δ1865 in transfected HeLa cell cultures; assay type: cell-based
Procedure: as §1, §2, §3

Aβ1-x (H4-APPsw) = assay: Aβ1-42, Aβ1-40 and Aβ1-x ELISA in H4-APPsw cultures at high concentrations; assay type: cell-based, human; conditions: overnight
Procedure: IC50 determinations for Aβ1-42 and Aβ1-40 in H4-APPsw cultures in 384-well format were determined using homogeneous time-resolved fluorescence immunoassays as previously described. The principle of these assays is illustrated in Figures 1(c) and 1(d). In other experiments using H4-APPsw cultures, Aβ was quantified by ELISA; for Aβ1-42 the combination of monoclonal antibodies was 26D6 and 565-HRP; for Aβ1-40 it was TSD and 26D6-HRP, and for Aβ1-x it was 4G8 and 26D6-HRP. In some experiments a novel 4-plex Aβ electrochemiluminescence immunoassay was used (Mesoscale Discovery catalog number N45ZA-1). […] For Aβ in transiently transfected PS1/PS2 dKO fibroblasts, Aβ1-42 was quantified using an ELISA kit (WACO), and Aβ1-40 was quantified by ELISA as described above for H4-APPsw cultures. […] For the rat and mouse experiments illustrated in Figures 7 and 8, brain samples were prepared by solid phase extraction, and endogenous rat brain Aβ1-42 and Aβ1-40 were quantified by ELISA as previously described for wild type mice. […] For brain extracts made in 0.2% diethylamine, Aβ1-42, Aβ1-40, Aβ1-38, and Aβ1-37 concentrations in brain and cell culture samples were determined by fitting the results of immunoassays against calibration curves derived from a range of dilutions of the corresponding synthetic peptides on each assay plate using a quadratic curve fit (Graphpad Prizm 5.0). […]

Row | SMILES | Notch/Aβ1-42 IC50 ratios (mNotch1ΔE; GSIs) | IC50 (mNotch1ΔE) [nM] | mNotch1ΔE/Aβ1-42 (mNotch1ΔE) [x] | NICD levels (mNotch1Δ1865; BMS-299897 at 1 μM, BMS-433796 at 0.3 μM) | overall levels of Aβ1-x (Aβ1-x (H4-APPsw)) | ratio of Notch to Aβ1-42 IC50s (mNotch1ΔE; based on IC50 >10 μM for Notch) [fold] | mNotch1Δ1865 substrate levels (mNotch1Δ1865; 10 μM) | cell observation (mNotch1Δ1865; 10 μM, HeLa cultures) | NICD levels (mNotch1Δ1865; concentrations up to 3 μM)
1 | C[C@H](c1ccc(F)cc1CCCC(=O)O)N(c1cc(F)ccc1F)S(=O)(=O)c1ccc(Cl)cc1 [BMS-299897, reference compound] | 723 | 340 | 723 | greatly reduced NICD | dramatically reduced all Aβ1-x peptides | – | – | – | –
2 | COc1cc(Nc2nc3n(n2)CCCC[C@H]3c2ccc(F)cc2)ccc1-n1cnc(Cl)c1 [BMS-869780] | – | > 10000 | >1785 | – | without any decrease in the overall levels of Aβ1-x | > 1785 | did not increase mNotch1Δ1865 levels | detached and dead cells | no effect on NICD levels
